{"source": "patent US11229203B2", "about": "“Method of formulation of combined microbe and agricultural chemistry, microbe-derivative composition, and use of same” (priority 2017, dated 2022)", "key": {"plant": {"system": "plant", "assay": "Plant growth and productivity with 1-octen-3-ol in aerial solution or as seed treatment", "format": "in vivo", "conditions": "very low concentrations in aerial solution; duplicated by seed treatments at low concentrations", "excerpt": "Applicants have begun evaluating the triggering molecules released in the rhizosphere since applicants expected that they might have both commercial and basic scientific uses. The expectation was they would have beneficial effects upon plants."}, "seeds": {"system": "seeds", "assay": "Field trials and large-scale laboratory tests of seed treatments", "format": "in vivo", "conditions": "seeds treated with formulations containing only 0.7 μl/seed", "excerpt": "Applicants expected that this compound as well as other microbial metabolites would have transitory but beneficial effects on plant growth, resistance to stresses and other advantages. However, as field trials were developed and conducted on seed treatments with this compound in field and large-scale laboratory tests, the effects were discovered to be neither transitory nor small."}}, "data": [{"smiles": "C=CC(O)CCCCC", "note": "(centres unmarked) [Trichoderma 1-octen-3-ol, 1-octen-3-ol]", "values": [{"measurement": "Effect on plant growth and productivity", "setting": "plant", "result": "enhances plant growth and productivity"}, {"measurement": "Duration of effects after seed treatment", "setting": "seeds", "result": "season long effects were observed"}]}]}
